The values that follow are results of earlier work, collected in patent US20110305654A1, “ANHYDROUS PETROLEUM JELLY/ELASTOMER-FREE DEPIGMENTING COMPOSITIONS COMPRISING A SOLUBILIZED PHENOLIC COMPOUND” (Galderma Research & Development, priority 2008, published 2011).

Each structure is given as a SMILES string. Like-named read-outs stand apart in the source and are kept apart here.

With `Oc1ccc(O)cc1` [hydroquinone], the Irritation result is, setting by setting: (10% concentrations) “relatively high”; (concentration of 2%) “virtually nonexistent”; (preparations with a 5% dose) “reduces greatly”.
